Data set [1] has as its system RSV. In words: microbe, parasite or virus in culture. The following applies: human respiratory syncytial virus, Vero 76, read-out: EC50 RSV. It counts as cell-based, Human Respiratory Syncytial Virus (RSV) strain A2.
Data set [2] can be described thus: in vitro. The following applies: African green monkey (Cercopithecus aethiops).
The subject of data set [3] is BVDV. The data set is described as follows: microbe, parasite or virus in culture. The following applies: Bovine viral diarrhea virus isolates and strains, MDBK, read-out: EC50 BVDV. It counts as cell-based.
A short description of data set [4]: Cytotoxicity, MTT method, MT-4 cells. The following applies: human. Background: Tetrazolium dyes change colour on reduction, which living cells bring about.
The test system of data set [5] is YFV. In words: microbe, parasite or virus in culture. It counts as cell-based. The following applies: Yellow fever virus, BHK, read-out: EC50 YFV.
Data set [6] in a line: in vitro. The following applies: cattle (Bos taurus).
For data set [7], the system named is RSV strain B1 cp-52. The data set is described as follows: microbe, parasite or virus in culture. It counts as cell-based. The following applies: human respiratory syncytial virus, Vero 76, read-out: 50% inhibitory concentration RSV cp-52.
The test system of data set [8] is Sb-1, VSV, VV, HSV-1. The data set is described as follows: organism not typed. Format: cell-based. The following applies: Vero 76, read-out: EC50 Sb-1, VSV, VV, HSV-1.
Data set [9] relates to Reo-1. In words: microbe, parasite or virus in culture. Format: cell-based, Reovirus type-1 (Reo-1). The following applies: Reovirus sp., BHK, read-out: EC50 Reo-1.
A short description of data set [10]: Cytotoxicity, MTT method, Vero-76 cells. The following applies: African green monkey (Cercopithecus aethiops).
Data set [11] has as its system CV-B5. The data set is described as follows: microbe, parasite or virus in culture. The following applies: Enterovirus B, CVB5, Vero 76, read-out: EC50 CV-B5. It counts as cell-based, Human Enterovirus B [coxsackie type B5 (CV-B5)].
Data set [12] deals with HIV-1IIIB. The data set is described as follows: microbe, parasite or virus in culture. It counts as cell-based, Human Immunodeficiency Virus type-1 (HIV-1). The following applies: Human immunodeficiency virus 1, MT4, read-out: EC50 HIV-1IIIB.
Data set [13] in a line: Cytotoxicity, MTT method, BHK cells. The following applies: Syrian hamster (Mesocricetus auratus).
Data set [14] has as its system RSV A2. The data set is described as follows: Immunofluorescence attachment assay. It counts as cell-based, Human Respiratory Syncytial Virus (RSV). The following applies: 4°C, Vero-76; 20 μM 10d, 6 μg/mL dextran sulfate, 5 μM 6-azauridine. The method, then:
Compounds' inhibitory effects on virus-cell binding event was measured by immunofluorescence performed according to the method described previously with some modifications (Maric et al., [2011]). […] After this incubation period, the monolayers were washed three times in cold PBS in order to remove unbound viral particles and then were fixed in paraformaldehyde 4%. The presence of bound virus was detected by indirect immunofluorescence. […] Abcam, Cambridge, United Kingdom). Cells were then washed three times in PBS-Tween-100 and incubated with a 1:500 dilution of an Alexa Fluor 488-labeled anti-mouse secondary antibody (Molecular Probes, Eugene, Oreg.). After a series of washes in PBS-Tween-100, cells were mounted with Vectashield (Vector Laboratories, Burlingame, CA) containing 4′,6-diamidino-2-phenylindole (DAPI) and images of each well were captured with the ZOE Fluorescent Cell Imager (Biorad).

Data set [15] deals with RSV. The data set is described as follows: Time of addition assay. Format: cell-based, Human Respiratory Syncytial Virus (RSV). The following applies: 20 μM. As for the experimental part:
After each incubation period, the monolayers were washed two times with maintenance medium and incubated with fresh medium until 10 h post-infection. Then, after 36 h the development of cytopathic effect (CPE) was evaluated microscopically and each sample was collected, centrifuged and frozen at −80°C. The viral titer was determined by plaque assay (or ELISA).

For data set [16], the system named is RSV A2. In words: Syncytium reduction assay. The following applies: Vero-76, added 8 h p.i. at 50, 10, 2 μM, assessed 72 h p.i.
The subject of data set [17] is RSV. The data set is described as follows: Antigen reduction assay (ELISA) in RSV-infected Vero-76 cells.
Data set [18] can be described thus: Cytotoxicity in continuous cell lines (summary statement). It counts as cell-based. The following applies: continuous cell lines from different organs and species (Table 1, Table S2); read-out: CC50 in most continuous cell lines. As for the experimental part: Exponentially growing MT-4 cells were seeded at an initial density of 4x10^5 cells/mL in 96-well plates containing RPMI-1640 medium, supplemented with 10% fetal bovine serum (FBS), 100 units/mL penicillin G and 100 μg/mL streptomycin. MDBK, Hep-2 and BHK cells were seeded at an initial density of 6 × 10^5, 5 × 10^5, and 1 × 10^6 cells/mL, respectively, in 96-well plates containing Minimum Essential Medium with Earle's salts (MEM-E), L-glutamine, 1 mM sodium pyruvate and 25 mg/L kanamycin, supplemented with 10% horse serum (MDBK) or 10% fetal bovine serum (FBS) (BHK; Hep-2). Vero-76 cells were seeded at an initial density of 5 × 10^5 cells/mL in 96-well plates containing in Dulbecco's Modified Eagle Medium (D-MEM) with L-glutamine and 25 mg/L kanamycin, supplemented with 10% FBS. Cell cultures were then incubated at 37°C in a humidified, 5% CO2 atmosphere, in the absence or presence of serial dilutions of test compounds. The test medium used for cytotoxic and antiviral assay contained 1% of the appropriate serum. Cell viability was determined after 72, 96, or 120 h at 37°C by the MTT method for MT-4, MDBK, Hep-2, BHK and Vero-76 cells (Budge et al., [2004]).

The test system of data set [19] is RSV. In words: Cell pretreatment assay. It counts as cell-based, Human Respiratory Syncytial Virus (RSV). The following applies: Vero-76 pretreated with 20 μM, 2 h at 4°C; titer 3 days post infection. The method, then:
After removal of the compound and two gentle washes, cells were infected with RSV. After virus adsorption to cells, the inoculum was removed and the cells were then overlaid with medium, incubated for 3 days at 37°C, and then virus titers were determined by plaque assay.

In data set [20] the test system is RSV virions. The data set is described as follows: Virucidal activity assay. The following applies: 20 μM, 4°C or 37°C, 1 h. Format: cell-based, Human Respiratory Syncytial Virus (RSV). As for the experimental part: The mixture without test sample was used as the control. At the end of incubation period, samples were serially diluted in media and titers were determined on Vero-76 cells at high dilutions, at which the compound was not active. Virus titers were determined by plaque assay in Vero-76 cells.

The subject of data set [21] is RSV F-protein. The following applies: read-out: experimental IC50; ref Battles et al., [2016]; cited from earlier work.

“Also recorded” adds a separate entry of the source.

For orientation: EC50 means the concentration needed to bring the measured effect to its halfway point. `NC(=O)c1ncn([C@@H]2O[C@H](CO)[C@@H](O)[C@H]2O)n1` [ribavirin, reference compound]: in data set [1], the EC50 was 7 µM. Further, the CC50 at 5 days in [2] was over 100 µM.

The melting point is the temperature, or range, at which the solid turns liquid. Molecule `COc1cc(C(=O)Nc2ccc(-n3nc4cc(Cl)c(Cl)cc4n3)cc2)cc(OC)c1OC` [8d, N-[4-(5,6-dichloro-2H-benzo[d][1,2,3]triazol-2-yl)phenyl]-3,4,5-trimethoxybenzamide] registered a melting point of 199 to 201 °C. The EC50 in data set [1] was 3 µM. For the same molecule, the EC50 in [3] turned out to be 35 µM. In data set [4], this molecule had a CC50 of 63 µM. In addition, the EC50 in data set [5] was over 35 µM. This molecule also displayed a CC50 in data set [6] of over 100 µM. Besides, in data set [7], the IC50 came out at 10 ± 2 µM. Further, the EC50 in [8] was over 80 µM. Moreover, in data set [9], the EC50 was over 35 µM. Besides, in data set [10], the CC50 at 5 days was 80 µM. Further, in data set [11], the EC50 was over 80 µM. The EC50 in data set [12] was over 63 µM. For the same molecule, the CC50 in data set [13] is 35 µM.

Consider `O=c1cnn([C@@H]2O[C@H](CO)[C@@H](O)[C@H]2O)c(=O)[nH]1` [6-azauridine, reference compound], for which the concentration for a half-maximal effect (EC50) in data set [1] was 1.4 µM. In [10], the CC50 at 5 days was at least 14 µM. Also, the “inhibition of viral attachment” value in [14] is “not able to block viral binding”.

On to `O=C(Nc1ccc(-n2nc3cc(Cl)c(Cl)cc3n2)cc1)NC1CCCCC1` [10d, 1-[4-(5,6-dichloro-2H-benzo[d][1,2,3]triazol-2-yl)phenyl]-3-cyclohexylurea], for which the melting point is over 300 °C. Moreover, in [15] (m.o.i. 1, 4–10 h after infection), the “inhibition of RSV, addition at later times” value is “failed to exhibit significant antiviral activity”. Besides, the “inhibition of RSV, addition in early phases” value in [15] (m.o.i. 1, during the 2 h of infection (t = 0) and immediately after) is “most efficient inhibition was observed in early phases of infection”. The EC50 in [1] is 2 µM. Also, the EC50 in data set [3] was over 100 µM. In data set [4], this molecule came in with a CC50 of over 100 µM. Also, the EC50 in data set [5] is over 71 µM. Further, the CC50 in data set [6] is over 100 µM. In addition, the IC50 in data set [7] came out at 7 ± 1 µM. The syncytium formation result in [16] is “the number and the size of syncytia decreased in a dose-dependent manner; also recorded: both size and number of syncytia did not increase; also recorded: effective in reducing both syncytia area and number at a concentration of 50 μM; also recorded: dose-dependent reduction of syncytia area and number”. In addition, the EC50 in [8] is over 90 µM. In data set [9], the EC50 is over 71 µM. This molecule also showed a CC50 at 5 days in data set [10] of 90 µM. Moreover, the EC50 in data set [11] is over 90 µM. For the same molecule, the “reduction of viral antigen” value in data set [17] (ELISA, at 20 μM) turned out to be 80%. The EC50 in [17] (human respiratory syncytial virus, Vero 76, read-out: EC50 viral antigen reduction) came to 5 µM. Also, the CC50 in [18] is under 70 µM. Also, the “inhibition of RSV infection after cell pretreatment” value in data set [19] was “failed to inhibit RSV infection; also recorded: failed to prevent viral infection”. Besides, in data set [20], the virucidal effect entry was “negligible”. Further, the “inhibition of viral attachment” value in data set [14] is “does not inhibit viral attachment; also recorded: not able to block viral binding to cells”. The EC50 in data set [12] is over 100 µM. The CC50 in data set [13] is 71 µM.

As for `Cc1ccc(CCCO)c(NCc2ccc3nc(NCCCN4CCOCC4)n(Cc4nc(C)ccc4O)c3c2)c1` [TMC353121], the IC50 in data set [21] was 0.0087 µM.

The molecule `CCCNC(=O)Nc1ccc(-n2nc3cc(Cl)c(Cl)cc3n2)cc1` [10b, 1-[4-(5,6-dichloro-2H-benzo[d][1,2,3]triazol-2-yl)phenyl]-3-propylurea] yielded a melting point of over 300 °C. For the same molecule, the half-maximal effective concentration (EC50) in data set [1] was 3 µM. The EC50 in data set [3] was over 78 µM. For the same molecule, in data set [4], the CC50 is over 100 µM. Also, the EC50 in [5] was over 40 µM. This molecule displayed a CC50 in data set [6] of 78 µM. The IC50 in data set [7] was determined as 7 ± 1 µM. In addition, the EC50 in [8] is over 30 µM. In data set [9], the EC50 was over 40 µM. In data set [10], this molecule returned a CC50 at 5 days of 30 µM. Further, the concentration giving a half-maximal response (EC50) in [11] was over 30 µM. Moreover, the EC50 in [12] is over 100 µM. In addition, the CC50 in [13] was 40 µM.

As for dextran sulfate [reference compound], the “inhibition of viral attachment” value in [14] was “inhibits viral attachment; also recorded: efficiently blocked viral attachment”.

Values taken from article PMC6476926, “Dichloro-Phenyl-Benzotriazoles: A New Selective Class of Human Respiratory Syncytial Virus Entry Inhibitors” (Frontiers in Chemistry, 2019).
